Assay results published in article PMC3461162 (British Journal of Cancer, 2012).

How the values were obtained:
Assay type in all cases: in vivo, human
[1] = system: pAKT, p4E-BP1 and pS6 in tumour biopsies; assay: Immunohistochemistry of paired pre- and post-dose tumour biopsies; conditions: two patients with baseline and post-dose tumour sample
[2] = Urine pharmacokinetics after single dose; conditions: for CL renal: human, urine, oral, CLR, Amean (n) (range); for fe (0–24), dose fraction excreted unchanged in the urine, Amean (n) (range): zero to 24 h post dose
[3] = Plasma pharmacokinetics, non-compartmental analysis; conditions: for Dose proportionality of exposure: BID dosing; for AUC(0-t) / AUC / Cmax / Vd/F / half-life / Tmax: human, plasma, oral; for AUC(0-t): AUC0–12, Gmean (range); for Vd/F: Vss/F, Amean (range)
[4] = following BID dosing, 10 mg BID solution
[5] = following BID dosing, 20 mg BID solution
[6] = following BID dosing, 40 mg BID solution
[7] = following BID dosing, 40 mg BID tablet
[8] = following BID dosing, 60 mg BID tablet
[9] = following BID dosing, 90 mg BID tablet
[10] = following BID dosing, 120 mg BID tablet
[11] = 10 mg, single dose, 10 mg solution (n=5)
[12] = 20 mg, single dose, 20 mg solution (n=3)

In the case of COc1ccc(-c2ccc3c(N4CCOC[C@@H]4C)nc(N4CCOC[C@@H]4C)nc3n2)cc1CO [AZD8055], the “Biomarker modulation for pAKT, p4E-BP1 and pS6 in tumour samples” value [1] was “did not show conclusive evidence of biomarker modulation”, the “Dose excreted unchanged in the urine” value ([2]; all dose levels, first 24 h following the single dose) was less than 0.25% and the CL renal ([2]; 10 mg, single dose, 10 mg solution) was 1.95 mL/min. The CL renal ([2]; 20 mg, single dose, 20 mg solution) was 1.29 mL/min, the CL renal ([2]; 40 mg, single dose, 40 mg solution) was 1.78 mL/min and the CL renal ([2]; 40 mg, single dose, 40 mg tablet) was 3.68 mL/min. The CL renal ([2]; 60 mg, single dose, 60 mg tablet) was 2.67 mL/min, the CL renal ([2]; 90 mg, single dose, 90 mg tablet) was 1.75 mL/min and the CL renal ([2]; 120 mg, single dose, 120 mg tablet) was 1.68 mL/min. The “Renal clearance” value ([2]; single dose) was “low renal clearance”, the “fe (0–24), dose fraction excreted unchanged in the urine, Amean (n) (range)” value ([2]; single dose, 10 mg solution) was 0.0248 (4) (0.0121–0.0438) % and the “fe (0–24), dose fraction excreted unchanged in the urine, Amean (n) (range)” value ([2]; single dose, 20 mg solution) was 0.0114 (3) (0.00512–0.0207) %. The “fe (0–24), dose fraction excreted unchanged in the urine, Amean (n) (range)” value ([2]; single dose, 40 mg solution) was 0.0227 (5) (0.00907–0.0423) %, the “fe (0–24), dose fraction excreted unchanged in the urine, Amean (n) (range)” value ([2]; single dose, 40 mg tablet) was 0.0881 (6) (0.0043–0.224) % and the “fe (0–24), dose fraction excreted unchanged in the urine, Amean (n) (range)” value ([2]; single dose, 60 mg tablet) was 0.0222 (7) (0.00289–0.0712) %. For the same compound, the “fe (0–24), dose fraction excreted unchanged in the urine, Amean (n) (range)” value ([2]; single dose, 90 mg tablet) was 0.0231 (9) (0.00155–0.0704) %, the “fe (0–24), dose fraction excreted unchanged in the urine, Amean (n) (range)” value ([2]; single dose, 120 mg tablet) was 0.0375 (7) (0.00237–0.151) % and the “Dose proportionality of exposure” value ([3]; solution formulation (10–40 mg)) was “proportional increase in exposure”. For the same compound, the “Dose proportionality of exposure” value ([3]; tablet formulation (40–120 mg)) was “greater than proportional increase with increasing dose”, the “CLss/F, Amean (n) (range)” value [3, 4] was 439 (4) (352–521) l h^−1 and the “Cmin ss, Gmean (n) (range)” value [3, 4] was 0.114 (3) (0.057–0.189) ng ml^−1. The “T c (temporal change, linearity factor), Gmean (n) (range)” value [3, 4] was 1.03 (4) (0.839–1.48), the “CLss/F, range only (Amean NC, n=2)” value [3, 5] was “NC (2) (268–426) l h^−1” and the “Cmin ss, range only (Gmean NC, n=1)” value [3, 5] was “NC (1) (0.228–0.228) ng ml^−1”. The “T c (temporal change, linearity factor), range only (Gmean NC, n=2)” value [3, 5] was “NC (2) (1.61–2.07)”, the “CLss/F, Amean (n) (range)” value [3, 6] was 369 (6) (278–492) l h^−1 and the “Cmin ss, Gmean (n) (range)” value [3, 6] was 0.370 (5) (0.162–0.821) ng ml^−1. For the same compound, the “T c (temporal change, linearity factor), Gmean (n) (range)” value [3, 6] was 1.10 (6) (0.539–1.65), the “CLss/F, Amean (n) (range)” value [3, 7] was 465 (5) (148–906) l h^−1 and the “Cmin ss, Gmean (n) (range)” value [3, 7] was 0.959 (5) (0.294–2.71) ng ml^−1. For the same compound, the “T c (temporal change, linearity factor), Gmean (n) (range)” value [3, 7] was 0.806 (5) (0.444–1.13), the “CLss/F, Amean (n) (range)” value [3, 8] was 483 (6) (92.9–1250) l h^−1 and the “T c (temporal change, linearity factor), Gmean (n) (range)” value [3, 8] was 1.30 (6) (0.525–2.50). For the same compound, the “CLss/F, Amean (n) (range)” value [3, 9] was 856 (4) (457–1630) l h^−1, the “Cmin ss, Gmean (n) (range)” value [3, 9] was 0.543 (5) (0.177–3.18) ng ml^−1 and the “T c (temporal change, linearity factor), Gmean (n) (range)” value [3, 9] was 1.18 (4) (0.831–1.69). The “CLss/F, Amean (n) (range)” value [3, 10] was 283 (7) (68.2–494) l h^−1, the “Cmin ss, Gmean (n) (range)” value [3, 10] was 3.54 (5) (1.40–41.1) ng ml^−1 and the “T c (temporal change, linearity factor), Gmean (n) (range)” value [3, 10] was 1.81 (7) (1.09–3.50). It also gave an AUC(0-t) [3, 11] of 24.1 ng·h/mL, an AUC ([3]; 10 mg, AUC, Gmean (range), single dose, 10 mg solution (n=5)) of 24.5 ng·h/mL and an AUC ([3]; 10 mg, AUCss, Gmean (n) (range), following BID dosing, 10 mg BID solution) of 23 ng·h/mL. It also gave a Cmax ([3]; 10 mg, Cmax ss, Gmean (n) (range), following BID dosing, 10 mg BID solution) of 17.3 ng/mL, a Cmax ([3]; 10 mg, Cmax, Gmean (range), single dose, 10 mg solution (n=5)) of 16.8 ng/mL and a Vd/F [3, 11] of 884 L. For the same compound, the half-life ([3]; 10 mg, t1/2, Amean (range), single dose, 10 mg solution (n=5)) was 2.43 h, the half-life ([3]; 10 mg, t1/2 ss, Amean (n) (range), following BID dosing, 10 mg BID solution) was 2.82 h and the Tmax ([3]; 10 mg, tmax ss, Median (n) (range), following BID dosing, 10 mg BID solution) was 0.5 h. The Tmax ([3]; 10 mg, tmax, Median (range), single dose, 10 mg solution (n=5)) was 0.5 h, the AUC(0-t) [3, 12] was 43.3 ng·h/mL and the AUC ([3]; 20 mg, AUC, Gmean (range), single dose, 20 mg solution (n=3)) was 43.7 ng·h/mL. The Cmax ([3]; 20 mg, Cmax, Gmean (range), single dose, 20 mg solution (n=3)) was 27 ng/mL, the Vd/F [3, 12] was 1050 L and the half-life ([3]; 20 mg, t1/2, Amean (range), single dose, 20 mg solution (n=3)) was 1.86 h. It also gave a Tmax ([3]; 20 mg, tmax, Median (range), single dose, 20 mg solution (n=3)) of 0.5 h.
